{"source": "patent US9604987B2", "about": "“Synthesis of autophagy inducing compound and the uses thereof” (Hong Kong Baptist University, priority 2012, dated 2017)", "key": {"[1]": {"test": "Pharmacokinetic study of Cory B, CB6 and CB8 in rats (plasma, LC/MS/MS, NCA)", "parameters": "species or system Male Sprague-Dawley (SD) rats", "settings": "rat, in vivo, 1 mg/kg; for AUC / Cmax / MRT / half-life: male, Sprague-Dawley", "method": "Male Sprague-Dawley (SD) rats (weighting ˜200 g) used in the experiment are provided by Laboratory Animal Services Center of The Chinese University of Hong Kong (Hong Kong SAR, People's Republic of China). Cory B (n=3), CB6 (n=6) and CB8 (n=6). For the jugular vein cannulation surgery, the rats are anesthetized (intramuscular injection of a mixture of 80 mg/kg ketamine and 8 mg/kg xylazine) followed by inserting a polyethylene tube (0.5 mm ID, 1 mm OD, Portex Ltd., England) into the right jugular vein. The cannulated rats are allowed to recover overnight while fasting with free access to water. For intravenous (IV) administrations, Cory B, CB6 or CB8 (200 μg/mL, dissolved in saline containing 9.2% PEG400+0.5% DMSO, w/w) is given through the jugular vein catheter at 1 mg/kg. For intranasal (IN) administration, 10 μL of Cory B, CB6 or CB8 (10 mg/mL, dissolved with 40% PEG400, 10% DMSO in H2O, w/w) is given to each nostril of rats. At pre-determined time points post-dosing (5, 10, 20, 30, 60, 120, 240 and 360 min for IV and IN administration groups), approximately 200 μL blood is collected into a heparinized centrifuge tube containing 5 μM EDTA followed by centrifugation at 3000 rpm for 5 min to obtain the plasma. To 100 μL rat plasma sample, an aliquot of 100 μL internal standard (IS) and 100 μL of acetonitrile are added. The mixture is mixed for 1 min by vortex and then centrifuged for 10 min at 13,200 rpm. 200 μL of supernatant is transferred into centrifuge tubes and mixed with 200 μL of H2O containing 4% formic acid (FA). After another round of vortex and centrifugation, 10 μL of the supernatant is subjected to LC/MS/MS for quantification of Cory B, CB6 or CB8 with an established LC/MS/MS method. Pharmacokinetic parameters from non-compartmental analysis (NCA) are calculated using WinNonLin. The pharmacokinetic parameters and profiles of each analytes are shown as below."}, "[2]": {"system": "N2a GFP-LC3 cells", "test": "GFP-LC3 puncta formation in N2a cells constantly expressing GFP-LC3 (confocal)", "format": "cell-based, mouse", "settings": "for pro-autophagic activity (GFP-LC3 puncta): 50 μM, 12 hours", "method": "Cell imaging and puncta counting. Cells were fixed in 3.7% paraformaldehyde (158127, Sigma) for 10 minutes and mounted with FluorSave reagent. Cell images were recorded using a fluorescence microscope or confocal microscope. GFP or RFP Puncta number were counted in cells as described previously. Briefly, the GFP-LC3 or RFP-LC3 puncta in each cell were manually counted, and at least 50 cells were randomly selected for counting in each group. The data presented were from one representative experiment of at least 3 independent experiments.\nFurther, a neuroblastoma cell line N2a constantly expressing GFP-LC3 (a standard autophagy marker protein) is established. The formation of GFP-LC3 puncta under Cory B treatment is observed under a confocal microscope. Data is presented as the mean±SEM of one representative experiment from three independent experiments. (*p<0.05, ***p<0.001, one-way ANOVA for multiple comparison and Tukey's test as post hoc test).\nTo confirm that enhancement of autophagy markers by Cory B is due to induction of autophagy rather than blockage of autophagosome maturation, N2a cells are treated with 25 μM Cory B or 30 μM lysosome inhibitor CQ together with Cory B for 12 hours. Cell lysates are subject to western blot analysis. Data are presented as the mean±SEM from 3 independent experiments (***p<0.001, one-way ANOVA for multiple comparison and Tukey's test as post hoc test). Both LC3-II levels and the number of GFP-LC3 puncta in the Cory B and CQ co-treatment group are much higher than in the CQ-alone treatment group (FIG. 2A-D). Meanwhile, Cory B induces GFP-LC3 puncta formation is abolished by treatment of 5 mM autophagy inhibitor 3-MA for 24 hours (FIG. 2C, D). Cells were fixed in 4% paraformaldehyde and analyzed under a confocal microscope. Data are presented as the mean±SEM of one representative experiment from three independent experiments. (***p<0.001, one-way ANOVA for multiple comparison and Tukey's test as post hoc test). […] Thus, Cory B is indeed an autophagy inducer in neuronal cells.\nIn order to observe the pro-autophagic activity of CB6 and CB8 intuitively, N2a cells constantly expressing GFP-LC3 are treated with 50 μM Cory B, CB6 and CB8 for 12 hours respectively. The cells are than fixed with 4% paraformaldehyde (Sigma, 158127) for 10 minutes, and then mounted with VECTASHIELD hardset anti-fade mounting medium. The mounted samples are then subjected to confocal microscopy analysis.\nAfter designated treatments, N2a cells constantly expressing GFP-LC3 were fixed with 4% paraformaldehyde (Sigma, 158127) for 10 min, and then mounted with VECTASHIELD hardset antifade mounting medium. The mounted samples were then subjected to confocal microscopy analysis."}}, "note": "Like-named read-outs stand apart in the source and are kept apart here."}
{"smiles": "CCCN1C(=O)[C@]2(CCN3C[C@@H](CC)[C@@H](/C(=C\\OC)C(=O)OC)C[C@H]32)c2ccccc21", "note": "[CB6]", "values": [{"measurement": "AUC", "setting": "[1]; inhaled or intranasal", "result": 200, "unit": "ng·h/mL"}, {"measurement": "Cmax", "setting": "[1]; inhaled or intranasal", "result": "244 ± 33", "unit": "ng/mL"}, {"measurement": "MRT", "setting": "[1]; inhaled or intranasal", "result": 1.83, "unit": "h"}, {"measurement": "half-life", "setting": "[1]; inhaled or intranasal", "result": "1.93 ± 0.133", "unit": "h"}, {"measurement": "AUC", "setting": "[1]; iv", "result": 248, "unit": "ng·h/mL"}, {"measurement": "Cmax", "setting": "[1]; iv", "result": "520 ± 177", "unit": "ng/mL"}, {"measurement": "MRT", "setting": "[1]; iv", "result": 1.58, "unit": "h"}, {"measurement": "half-life", "setting": "[1]; iv", "result": "2 ± 0.25", "unit": "h"}, {"measurement": "Tmax (time to reach Cmax)", "setting": "[1]; inhaled or intranasal", "result": "5 ± 0", "unit": "min"}, {"measurement": "Cmax and Area Under Curve (AUC) in comparison Cory B", "setting": "[1]; iv", "result": "greater"}, {"measurement": "pro-autophagic activity (GFP-LC3 puncta)", "setting": "[2]", "result": "confirmed to be autophagy inducers"}]}
{"smiles": "C=CCN1C(=O)[C@]2(CCN3C[C@@H](CC)[C@@H](/C(=C\\OC)C(=O)OC)C[C@H]32)c2ccccc21", "note": "[CB8]", "values": [{"measurement": "AUC", "setting": "[1]; inhaled or intranasal", "result": 124, "unit": "ng·h/mL"}, {"measurement": "Cmax", "setting": "[1]; inhaled or intranasal", "result": "129 ± 61", "unit": "ng/mL"}, {"measurement": "MRT", "setting": "[1]; inhaled or intranasal", "result": 1.95, "unit": "h"}, {"measurement": "half-life", "setting": "[1]; inhaled or intranasal", "result": "1.65 ± 0.217", "unit": "h"}, {"measurement": "AUC", "setting": "[1]; iv", "result": 102, "unit": "ng·h/mL"}, {"measurement": "Cmax", "setting": "[1]; iv", "result": "143 ± 42", "unit": "ng/mL"}, {"measurement": "MRT", "setting": "[1]; iv", "result": 1.65, "unit": "h"}, {"measurement": "half-life", "setting": "[1]; iv", "result": "1.87 ± 0.433", "unit": "h"}, {"measurement": "Tmax (time to reach Cmax)", "setting": "[1]; inhaled or intranasal", "result": "5 ± 0", "unit": "min"}, {"measurement": "Cmax and Area Under Curve (AUC) in comparison Cory B", "setting": "[1]; iv", "result": "greater"}, {"measurement": "pro-autophagic activity (GFP-LC3 puncta)", "setting": "[2]", "result": "confirmed to be autophagy inducers"}]}
{"smiles": "CC[C@@H]1CN2CC[C@]3(C(=O)Nc4ccccc43)C2C[C@@H]1C(=COC)C(=O)OC", "note": "(some centres unmarked) [Cory B, Corynoxine B]", "values": [{"measurement": "AUC", "setting": "[1]; inhaled or intranasal, rats, intranasal, read-out: AUC (area under the curve) (converted)", "result": 92.6, "unit": "ng·h/mL"}, {"measurement": "Cmax", "setting": "[1]; inhaled or intranasal, rats, intranasal, read-out: Cmax (maximum plasma concentration)", "result": "145 ± 62", "unit": "ng/mL"}, {"measurement": "MRT", "setting": "[1]; inhaled or intranasal, rats, intranasal, read-out: MRT (mean residence time) (converted)", "result": 2.22, "unit": "h"}, {"measurement": "half-life", "setting": "[1]; inhaled or intranasal, rats, intranasal, read-out: t1/2 (plasma half-life)", "result": "1.93 ± 0.233", "unit": "h"}, {"measurement": "AUC", "setting": "[1]; rats, intravenous, read-out: AUC (area under the curve) (converted)", "result": 63.6, "unit": "ng·h/mL"}, {"measurement": "Cmax", "setting": "[1]; rats, intravenous, read-out: Cmax (maximum plasma concentration)", "result": "66 ± 8", "unit": "ng/mL"}, {"measurement": "MRT", "setting": "[1]; rats, intravenous, read-out: MRT (mean residence time) (converted)", "result": 2.3, "unit": "h"}, {"measurement": "half-life", "setting": "[1]; rats, intravenous, read-out: t1/2 (plasma half-life)", "result": "2.13 ± 0.367", "unit": "h"}, {"measurement": "GFP-LC3 puncta formation in presence of autophagy inhibitor 3-MA", "setting": "[2]; 5 mM 3-MA, 24 hours", "result": "abolished"}, {"measurement": "GFP-LC3 puncta formation", "setting": "[2]; N2a GFP-LC3 cells, Cory B treatment", "result": "induces massive GFP-LC3 puncta formation"}]}
